This is an account of results in PMC3876937 (Protein expression and purification, 2013).

This experiment deals with T1, YGR257Cp (Mtm1p) (Saccharomyces cerevisiae, UniProt P53320).
T1 sequence (P53320 1-366): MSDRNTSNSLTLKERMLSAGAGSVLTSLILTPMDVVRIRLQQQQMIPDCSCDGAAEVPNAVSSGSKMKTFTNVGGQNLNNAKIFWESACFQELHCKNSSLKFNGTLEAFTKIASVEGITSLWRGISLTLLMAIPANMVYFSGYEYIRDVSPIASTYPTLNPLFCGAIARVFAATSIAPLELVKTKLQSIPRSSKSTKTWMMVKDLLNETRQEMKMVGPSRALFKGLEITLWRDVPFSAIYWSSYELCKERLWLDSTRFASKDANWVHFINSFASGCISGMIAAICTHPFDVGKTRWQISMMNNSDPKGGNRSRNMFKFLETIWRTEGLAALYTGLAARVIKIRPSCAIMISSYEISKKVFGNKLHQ
Nature of the experiment: intrinsic tryptophan fluorescence quenching titration. Type of experiment: binding.

Usually Kd stands for the equilibrium constant for the complex coming apart. On to `Cc1ncc(COP(=O)(O)O)c(C=O)c1O` [pyridoxal 5′-phosphate], for which binding was put at a Kd of 700 ± 20 nM.
